Results: ChEMBL document CHEMBL1201862, “PubChem BioAssay data set” (2004)
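These data come from cells grown in 96-well plates and exposed to compound for 48 hours at five concentrations. GI50 marks 50% less growth.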 Calls of active or inactive are those of the source. No stated cut-off is given here; in the data, active = GI50 up to about 1.1 µM and inactive = higher.

Experiments:
Test in all cases: NCI tumour cell line growth inhibition, 48 h
SNB-75 = test system: SNB-75
SF-268 = test system: SF-268
Hs-578T = test system: Hs-578T
NCI-H522 = test system: NCI-H522
NCI/ADR-RES = test system: NCI/ADR-RES
HCT-116 = test system: HCT-116
SR = test system: SR
COLO 205 = test system: COLO 205
CAKI-1 = test system: CAKI-1
PC-3 = test system: PC-3
MOLT-4 = test system: MOLT-4
ACHN = test system: ACHN
HOP-62 = test system: HOP-62
MDA-MB-231 = test system: MDA-MB-231
SF-539 = test system: SF-539
EKVX = test system: EKVX
DU-145 = test system: DU-145
TK-10 = test system: TK-10
SN12C = test system: SN12C
SW-620 = test system: SW-620
M14 = test system: M14
MCF7 = test system: MCF7
NCI-H226 = test system: NCI-H226
HOP-92 = test system: HOP-92
A549 = test system: A549
HT-29 = test system: HT-29
UACC-62 = test system: UACC-62
T47D = test system: T47D
UO-31 = test system: UO-31
CCRF-CEM = test system: CCRF-CEM
HCC 2998 = test system: HCC 2998
UACC-257 = test system: UACC-257
RXF 393 = test system: RXF 393
BT-549 = test system: BT-549
786-0 = test system: 786-0
SK-MEL-5 = test system: SK-MEL-5
KM12 = test system: KM12
SK-OV-3 = test system: SK-OV-3
LOX IMVI = test system: LOX IMVI
MDA-N = test system: MDA-N
NCI-H23 = test system: NCI-H23
RPMI-8226 = test system: RPMI-8226
OVCAR-8 = test system: OVCAR-8
K562 = test system: K562
NCI-H460 = test system: NCI-H460
OVCAR-4 = test system: OVCAR-4
IGROV-1 = test system: IGROV-1
SNB-19 = test system: SNB-19
MDA-MB-435 = test system: MDA-MB-435
SK-MEL-28 = test system: SK-MEL-28
HL-60 = test system: HL-60
HCT-15 = test system: HCT-15
Malme-3M = test system: Malme-3M
SF-295 = test system: SF-295

## CC(=O)OCc1ccc(-c2nc(C#N)c(N)o2)o1
SNB-75
  GI50: > 10 µM (inactive)
SF-268
  GI50: > 10 µM (inactive)
Hs-578T
  GI50: > 10 µM (inactive)
NCI-H522
  GI50: > 10 µM (inactive)
NCI/ADR-RES
  GI50: > 10 µM (inactive)
HCT-116
  GI50: > 10 µM (inactive)
SR
  GI50: > 10 µM (inactive)
COLO 205
  GI50: > 10 µM (inactive)
CAKI-1
  GI50: > 10 µM (inactive)
PC-3
  GI50: > 10 µM (inactive)
MOLT-4
  GI50: > 10 µM (inactive)
ACHN
  GI50: > 10 µM (inactive)
HOP-62
  GI50: > 10 µM (inactive)
MDA-MB-231
  GI50: > 10 µM (inactive)
SF-539
  GI50: > 10 µM (inactive)
EKVX
  GI50: > 10 µM (inactive)
DU-145
  GI50: > 10 µM (inactive)
TK-10
  GI50: > 10 µM (inactive)
SN12C
  GI50: > 10 µM (inactive)
SW-620
  GI50: > 10 µM (inactive)
M14
  GI50: > 10 µM (inactive)
MCF7
  GI50: > 10 µM (inactive)
NCI-H226
  GI50: > 10 µM (inactive)
HOP-92
  GI50: > 10 µM (inactive)
A549
  GI50: > 10 µM (inactive)
HT-29
  GI50: > 10 µM (inactive)
UACC-62
  GI50: > 10 µM (inactive)
T47D
  GI50: > 10 µM (inactive)
UO-31
  GI50: > 10 µM (inactive)
CCRF-CEM
  GI50: > 10 µM (inactive)
HCC 2998
  GI50: > 10 µM (inactive)
UACC-257
  GI50: > 10 µM (inactive)
RXF 393
  GI50: > 10 µM (inactive)
BT-549
  GI50: > 10 µM (inactive)
786-0
  GI50: > 10 µM (inactive)
SK-MEL-5
  GI50: > 10 µM (inactive)
KM12
  GI50: > 10 µM (inactive)
SK-OV-3
  GI50: > 10 µM (inactive)
LOX IMVI
  GI50: > 10 µM (inactive)
MDA-N
  GI50: > 10 µM (inactive)
NCI-H23
  GI50: > 10 µM (inactive)
RPMI-8226
  GI50: > 10 µM (inactive)
OVCAR-8
  GI50: > 10 µM (inactive)
K562
  GI50: > 10 µM (inactive)
NCI-H460
  GI50: > 10 µM (inactive)
OVCAR-4
  GI50: > 10 µM (inactive)
IGROV-1
  GI50: > 10 µM (inactive)
SNB-19
  GI50: > 10 µM (inactive)
MDA-MB-435
  GI50: > 10 µM (inactive)
SK-MEL-28
  GI50: > 10 µM (inactive)
HL-60
  GI50: > 10 µM (inactive)
HCT-15
  GI50: > 10 µM
Malme-3M
  GI50: > 10 µM (inactive)
SF-295
  GI50: > 10 µM (inactive)
